One data set concerns the target T1, α6β3γ2 receptor (Rattus norvegicus, UniProt P30191+P63079).
T1 construct: expressed in transfected cells; host or cells: Xenopus laevis oocytes injected with subunit mRNA (3:1:5)
The experiment in a line: Electrophysiology in Xenopus oocytes, modulation of GABA currents. It is filed as cell-based. The settings on record: for Emax: EC3-6 GABA currents, read-out: maximum efficacy, enhancement of the reference current; for selectivity for α6β3γ2 over other αxβ3γ2 receptors: modulation of GABA EC3 currents. The method, then:
Mature female Xenopus laevis (Nasco, Fort Atkinson, Wis., USA) were anaesthetized in a bath of ice-cold 0.17% Tricain (Ethyl-m-aminobenzoat, Sigma-Aldrich, St. Louis, Mo., USA) before decapitation and transfer of the frog's ovary to ND96 medium (96 mM NaCl, 2 mM KCl, 1 mM MgCl2, 5 mM HEPES; pH 7.5). Following incubation in 1 mg/mL collagenase (Sigma-Aldrich, St. Louis, Mo., USA) for 30 min, stage 5 to 6 oocytes were singled out of the ovary and defolliculated using a platinum wire loop. Oocytes were stored and incubated at 18° C. in NDE medium (96 mM NaCl, 2 mM KCl, 1 mM MgCl2, 5 mM HEPES, 1.8 mM CaCl2; pH 7.5) that was supplemented with 100 U per mL-1 penicillin, 100 μg per mL-1 streptomycin and 2.5 mM pyruvate. Oocytes were injected with an aqueous solution of mRNA. A total of 2.5 ng of mRNA per oocyte was injected. Subunit ratio was 1:1:5 for αxβγ2 (x=1, 2, 3, 5) and 3:1:5 for α4/6β3γ2 and αβδ receptors. Injected oocytes were incubated for at least 36 h before electrophysiological recordings. Oocytes were placed on a nylon-grid in a bath of NDE medium. For current measurements, the oocytes were impaled with two microelectrodes (2-3MΩ), which were filled with 2 M KCl. The oocytes were constantly washed by a flow of 6 mL per min-1 NDE that could be switched to NDE containing GABA and/or drugs. Drugs were diluted into NDE from DMSO solutions resulting in a final concentration of 0.1% DMSO. […] To test for modulation of GABA induced currents by compounds, a GABA concentration that was titrated to trigger 3-5% of the respective maximum GABA-elicited current of the individual oocyte (EC3-5) was applied to the cell together with various concentrations of tested compounds. All recordings were performed at room temperature at a holding potential of −60 mV using a Warner OC-725C TEV (Warner Instrument, Hamden, Conn., USA) or a Dagan CA-1B Oocyte Clamp or a Dagan TEV-200A TEV (Dagan Corporation, Mineapolis, Minn., USA). Data were digitized using a Digidata 1322A or 1550 data acquisition system (Axon Instruments, Union City, Calif., USA), recorded using Clampex 10.5 software (Molecular Devices, Sunnyvale, Calif., USA), and analyzed using Clampfit 10.5 and GraphPad Prism 6.0 (La Jolla, Calif., USA) software. Concentration-response data were fitted using the Hill equation. Data are given as mean±SEM from at least three oocytes of two batches.
For selected test compounds full dose response curves were recorded in α1-6β3γ2 receptors. For selected compounds, dose response curves in additional receptor subtypes (α1, 4, 6β3δ, α6β1, 2γ2, α1-6β3) were also obtained. For a wider panel of compounds, a two point screening pharmacology was obtained at 1 and 10 μM compound concentrations.

The nature of data set [1]: Solubility of compounds in DI water. Type of data set: physicochemical. The settings on record: thermodynamic from solid; 2 mg in 2 mL DI water, sonicated at 60° C. for 2 hours, cooled to room temperature, filtered. As for the experimental part:
The solubility of the compounds was examined by sonicating 2 mg of each respective compound in 2 mL of DI water at 60° C. for 2 hours. Solutions were cooled to room temperature and then filtered using a syringe filter. The resultant solutions were injected into a mass spectrometer using a SIM method, calibrated to the respective retention times and mass units of each compound. Calibration curves using standard solutions (5 data points) of each compound dissolved in methanol were used to calculate the unknown aqueous concentrations of each compound.

For a further data set, the system named is HEPG2 cell line. Briefly: Cytotoxicity study, CellTiter-Glo cell viability. Type of data set: cell-based, Human. The settings on record: HEPG2, 48 hours incubation. As for the experimental part:
Reagents and Instrumentation: Human liver hepatocellular carcinoma (HEPG2) cell line was purchased (ATCC) and cultured in 75 cm2 flasks (CellStar). Cells were grown in DMEM/High Glucose (Hyclone, #SH3024301) media to which non-essential amino acids (Hyclone, #SH30238.01), 10 mM HEPES (Hyclone, #SH302237.01), 5×106 units of penicillin and streptomycin (Hyclone, #SV30010), and 10% of heat inactivated fetal bovine serum (Gibco, #10082147) were added. Cells were harvested using 0.05% Trypsin (Hyclone, #SH3023601), which disrupts the cell monolayer and proteolytically cleaves the bonds between the cells and flask. The cell viability assay was evaluated using CellTiter-Glo™ Luminescent Cell Viability Assay Kit (Promega, Madison, Wis.) which contains luciferase and all its substrate except ATP. The controls for the cytotoxicity assay used were (E)-10-(bromotriphenylphosphoranyl)decyl 4-(4-(tert-butyl)phenyl)-4-oxobut-2-enoate (400 μM in DMSO, positive control) and DMSO (negative control). Cell culture was performed in a Baker Company Class II Biological Safety Cabinet. All luminescence readings were performed on a Tecan Infinite M1000 plate reader. Small volume transfers were performed on the Tecan Freedom EVO liquid handling system with a 100 nL pin tool transfer (V&P Scientific). Serial dilutions were done in 96-well polypropylene plates (Corning, #3365) and assays were conducted in 384-well white optical bottom plates.
Luminescence-Based VDR-Mediated Transcription Assay Protocol: After 48 hours of incubation at 37 °C with 5% CO2, the cells were harvested with 4 mL of 0.05% Trypsin, added to 10 mL of the assay buffer, DMEM/High Modified buffer without phenol red, and spun down for 3 minutes at 1000 rpm. The media was removed and cells were resuspended in the DMEM assay media. To each well, 40 μL of cells were added to yield a final concentration of 15,000 cells per well. The plates were then spun down for 2 minutes at 1000 rpm. After 2 hours, plated cells were treated with 100 nL×4 of small molecules and controls which were added using the pin tool. After 48 hours of incubation at 37 °C with 5% CO2, 20 μL of Cell Titer-Glo™ Luminescence Assay Kit (cytotoxicity assay) were added and luminescence was read. Controls were measured within each plate to determine the z′ factor (Equation 1) and to enable data normalization. Three independent experiments were performed in quadruplicate and data was analyzed using nonlinear regression with variable slope (GraphPrism, Equation 2). The luminescence intensity of control (untreated) cells was taken as 100% viability, and the relative cell viability compared to control was calculated. Data are presented as the means±SEM of a series of three experiments.

Converted amounts (≈) assume the structure as drawn. “Also recorded” adds a separate entry of the source.

A word on the solubility: it is the concentration that dissolves in the medium under given conditions.

T1 sequence (P30191 20-453): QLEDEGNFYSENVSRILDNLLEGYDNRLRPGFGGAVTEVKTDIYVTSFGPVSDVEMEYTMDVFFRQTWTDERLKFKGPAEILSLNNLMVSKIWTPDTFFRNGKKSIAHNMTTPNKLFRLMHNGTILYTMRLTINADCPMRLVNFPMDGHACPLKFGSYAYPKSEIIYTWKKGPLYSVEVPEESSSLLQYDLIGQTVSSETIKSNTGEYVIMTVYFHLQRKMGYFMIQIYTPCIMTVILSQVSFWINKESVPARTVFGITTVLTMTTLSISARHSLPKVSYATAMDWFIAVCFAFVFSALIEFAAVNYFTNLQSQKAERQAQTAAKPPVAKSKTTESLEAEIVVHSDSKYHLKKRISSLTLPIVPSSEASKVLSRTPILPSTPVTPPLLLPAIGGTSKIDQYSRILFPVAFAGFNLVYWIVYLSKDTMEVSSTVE
T1 sequence (P63079 26-473): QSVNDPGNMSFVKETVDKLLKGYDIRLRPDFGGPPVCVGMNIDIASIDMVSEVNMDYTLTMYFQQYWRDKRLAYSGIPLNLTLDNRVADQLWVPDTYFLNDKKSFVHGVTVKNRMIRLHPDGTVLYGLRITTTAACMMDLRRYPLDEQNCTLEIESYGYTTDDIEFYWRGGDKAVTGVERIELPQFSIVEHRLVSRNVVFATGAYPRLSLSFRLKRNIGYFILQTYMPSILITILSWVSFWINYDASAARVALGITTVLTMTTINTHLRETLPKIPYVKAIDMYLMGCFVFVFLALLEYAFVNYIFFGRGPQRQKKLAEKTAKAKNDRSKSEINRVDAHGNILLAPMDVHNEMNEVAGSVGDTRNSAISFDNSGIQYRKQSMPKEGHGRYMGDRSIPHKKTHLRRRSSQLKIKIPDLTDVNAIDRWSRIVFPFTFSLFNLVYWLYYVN
T1 sequence (P18508 39-466 partner): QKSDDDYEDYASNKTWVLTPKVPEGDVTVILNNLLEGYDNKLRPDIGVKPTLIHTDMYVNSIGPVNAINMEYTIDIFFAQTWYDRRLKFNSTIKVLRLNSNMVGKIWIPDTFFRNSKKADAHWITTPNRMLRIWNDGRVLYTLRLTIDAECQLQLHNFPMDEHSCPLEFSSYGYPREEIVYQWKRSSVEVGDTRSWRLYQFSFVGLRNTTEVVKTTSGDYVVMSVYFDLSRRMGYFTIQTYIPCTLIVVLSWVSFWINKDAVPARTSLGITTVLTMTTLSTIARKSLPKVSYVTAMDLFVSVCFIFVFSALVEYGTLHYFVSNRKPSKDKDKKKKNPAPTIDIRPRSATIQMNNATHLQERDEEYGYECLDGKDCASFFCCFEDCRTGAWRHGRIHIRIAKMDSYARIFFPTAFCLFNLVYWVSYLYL

With `COc1ccc(-n2nc3c4ccc(OC)cc4[nH]cc-3c2=O)cc1` [Compound 6, 7-Methoxy-2-(4-methoxyphenyl)-2,5-dihydro-3H-pyrazolo[4,3-c]quinolin-3-one], on α6β3γ2 receptor, the Emax fell in the range of 400 to 1000%. The “selectivity for α6β3γ2 over other αxβ3γ2 receptors” value (from here on “selectivity for α6β3γ2”) is on record as “preferentially modulate GABA currents of α6β3γ2 receptors; also recorded: pronounced selectivity for the α6β3γ2 receptor” on α6β3γ2 receptor and “selectively modulates α6-containing receptors; also recorded: (efficacy-) selective for α6β3γ2 receptors” on α6β3γ2 receptor (listed as compound 6).
Consider `COc1cccc(-n2nc3c4cc(Cl)ccc4[nH]cc-3c2=O)c1` [LAU 159, 8-Chloro-2-(3-methoxyphenyl)-2,5-dihydro-3H-pyrazolo[4,3-c]quinolin-3-one], for which, at α6β3γ2 receptor, the Emax is roughly 400% and the “selectivity for α6β3γ2” value was “preferentially modulate GABA currents of α6β3γ2 receptors; also recorded: pronounced selectivity for the α6β3γ2 receptor; also recorded: (efficacy-) selective for α6β3γ2 receptors”.
The compound `[2H]C([2H])([2H])Oc1ccc2c3nn(-c4ccc(OC)nc4)c(=O)c-3c[nH]c2c1` [DK-I-86-1, 7-Methoxy-d3-2-(6-methoxypyridin-3-yl)-2,5-dihydro-3H-pyrazolo[4,3-c]quinolin-3-one] yielded a solubility at 2 h in data set [1] of 211 µg/mL (≈ 649 µM). Besides, the “toxicity at 400 μM” value with HEPG2 cell line is “non-toxic”. At α6β3γ2 receptor, the “maximum efficacy compared to the lead compounds” value is on record as “lower” and the “selectivity for α6β3γ2” value is “preferentially modulates α6β3γ2 receptors; also recorded: selectivity was very good”.
As for `COc1ccc(-n2nc3c4ccc(Br)cc4[nH]cc-3c2=O)cc1` [LAU 463, 7-Bromo-2-(4-methoxyphenyl)-2,5-dihydro-3H-pyrazolo[4,3-c]quinolin-3-one], at α6β3γ2 receptor, the Emax was 400 to 1000% and the “selectivity for α6β3γ2” value was “preferentially modulate GABA currents of α6β3γ2 receptors; also recorded: pronounced selectivity for the α6β3γ2 receptor; also recorded: (efficacy-) selective for α6β3γ2 receptors”.
The compound `[2H]C([2H])([2H])Oc1ccc(-n2nc3c4ccc(OC)cc4[nH]cc-3c2=O)cc1` [DK-I-56-1, 7-Methoxy-2-(4-methoxy-d3-phenyl)-2,5-dihydro-3H-pyrazolo[4,3-c]quinolin-3-one] displayed a solubility at 2 h in data set [1] of 11.4 µg/mL (≈ 35.1 µM). Also, in the data set on HEPG2 cell line, the “toxicity at 400 μM” value is listed as “non-toxic”.

Values taken from patent publication US10865203B2, “Ligands selective to alpha 6 subunit-containing GABAA receptors and their methods of use” (UWM Research Foundation, Inc., priority 2015, dated 2020).
